# Patent US20010047021A1, “Cancer treatment” (The Procter & Gamble Company, priority 2000, published 2001)
# Test system: SK-OV-3 tumor lines
# Assay: SK-OV-3 tumor in nude mouse, average tumor weight
# Assay type: in vivo
# Protocol: 2-Methoxycarbonylamino-4,5,6,7-tetrafluorobenzimidazole (tetrafluoro) was used to treat SK-OV-3 tumor lines in nude mouse. The average tumor weight is reported in mg. The control was the vehicle given twice a week and also 5 times a week. The 2-methoxycarbonyl-amino-4,5,6,7- tetrafluorobenzimidazole was also given on this same schedule. Both compounds were administered by oral gavage.
structure (smiles),measurement,setting,value
"COC(=O)Nc1nc2c(F)c(F)c(F)c(F)c2[nH]1 [Tetrafluoro, 2-Methoxycarbonylamino-4,5,6,7-tetrafluorobenzimidazole]",Average Tumor Weight,"2000 mg/kg 2x wkly, oral gavage, day 1",58.5 mg
same,Average Tumor Weight,"2000 mg/kg 2x wkly, oral gavage, day 5",108.1 mg
same,Average Tumor Weight,"2000 mg/kg 2x wkly, oral gavage, day 9",246.8 mg
same,Average Tumor Weight,"2000 mg/kg 2x wkly, oral gavage, day 12",476.2 mg
same,Average Tumor Weight,"2000 mg/kg 2x wkly, oral gavage, day 15",770 mg
same,Average Tumor Weight,"2000 mg/kg qdx5, oral gavage, day 1",59.1 mg
same,Average Tumor Weight,"2000 mg/kg qdx5, oral gavage, day 5",106.2 mg
same,Average Tumor Weight,"2000 mg/kg qdx5, oral gavage, day 9",255.8 mg
same,Average Tumor Weight,"2000 mg/kg qdx5, oral gavage, day 12",381.7 mg
same,Average Tumor Weight,"2000 mg/kg qdx5, oral gavage, day 15",781.2 mg
same,Average Tumor Weight,"4000 mg/kg 2x wkly, oral gavage, day 1",59.5 mg
same,Average Tumor Weight,"4000 mg/kg 2x wkly, oral gavage, day 5",98.6 mg
same,Average Tumor Weight,"4000 mg/kg 2x wkly, oral gavage, day 9",204 mg
same,Average Tumor Weight,"4000 mg/kg 2x wkly, oral gavage, day 12",336.6 mg
same,Average Tumor Weight,"4000 mg/kg 2x wkly, oral gavage, day 15",672.9 mg
same,Average Tumor Weight,"4000 mg/kg qdx5, oral gavage, day 1",59.5 mg
same,Average Tumor Weight,"4000 mg/kg qdx5, oral gavage, day 5",66.1 mg
same,Average Tumor Weight,"4000 mg/kg qdx5, oral gavage, day 9",150.8 mg
same,Average Tumor Weight,"4000 mg/kg qdx5, oral gavage, day 12",160.7 mg
same,Average Tumor Weight,"4000 mg/kg qdx5, oral gavage, day 15",315.8 mg
same,effect on the growth of the tumor,"SK-OV-3 tumor, nude mouse, oral gavage",dose responsive effect
